In ChEMBL document CHEMBL5608181, “Discovery of indazole inhibitors for heat shock protein 90 as anti-cancer agents” (Eur J Med Chem, 2024):
Active and inactive are the calls of the source. The rule behind the calls is not given here.

What was measured:
[1] = test system: HEK293; experiment: Cytotoxicity against HEK293 cells assessed as reduction in cell viability at 10 uM measured after 72 hrs by CellTiter 96 Aqueous One Solution Cell Proliferation Assay; format: toxicity, cell-based; settings: human, hek293, 72 h
[2] = test system: JIMT-1; experiment: Antiproliferative activity against human JIMT-1 cells assessed as inhibition of cell viability at 10 uM measured after 72 hrs by CellTiter 96 Aqueous One Solution Cell Proliferation Assay; format: functional, cell-based
[3] = test system: BT-474; experiment: Antiproliferative activity against human BT-474 cells assessed as inhibition of cell viability at 10 uM measured after 72 hrs by CellTiter 96 Aqueous One Solution Cell Proliferation Assay; format: functional, cell-based
[4] = test system: BT-474; experiment: Antiproliferative activity against human BT-474 cells assessed as inhibition of cell viability at 10 uM measured after 72 hrs by CellTiter 96 Aqueous One Solution Cell Proliferation Assay relative to control; format: functional

Structure (SMILES) | Activity [1] | Activity [2] | Activity [3] | inhibition at 10 µM [4]
COCCn1cc(NC(=O)c2ccc3c(c2OC)C=CC(C)(C)O3)c2ccccc21 | Toxic | Active | Active | 
COCCCn1nc(NC(=O)c2ccc3c(c2OC)C=CC(C)(C)O3)c2ccccc21 |  |  |  | > 50%
